T1: PR (Homo sapiens, UniProt P06401)
T1 construct: made in house; host or cells: PR-B: rabbit reticulocyte lysate / T7 RNA polymerase in vitro translation (Promega)
T1 sequence (P06401 1-933): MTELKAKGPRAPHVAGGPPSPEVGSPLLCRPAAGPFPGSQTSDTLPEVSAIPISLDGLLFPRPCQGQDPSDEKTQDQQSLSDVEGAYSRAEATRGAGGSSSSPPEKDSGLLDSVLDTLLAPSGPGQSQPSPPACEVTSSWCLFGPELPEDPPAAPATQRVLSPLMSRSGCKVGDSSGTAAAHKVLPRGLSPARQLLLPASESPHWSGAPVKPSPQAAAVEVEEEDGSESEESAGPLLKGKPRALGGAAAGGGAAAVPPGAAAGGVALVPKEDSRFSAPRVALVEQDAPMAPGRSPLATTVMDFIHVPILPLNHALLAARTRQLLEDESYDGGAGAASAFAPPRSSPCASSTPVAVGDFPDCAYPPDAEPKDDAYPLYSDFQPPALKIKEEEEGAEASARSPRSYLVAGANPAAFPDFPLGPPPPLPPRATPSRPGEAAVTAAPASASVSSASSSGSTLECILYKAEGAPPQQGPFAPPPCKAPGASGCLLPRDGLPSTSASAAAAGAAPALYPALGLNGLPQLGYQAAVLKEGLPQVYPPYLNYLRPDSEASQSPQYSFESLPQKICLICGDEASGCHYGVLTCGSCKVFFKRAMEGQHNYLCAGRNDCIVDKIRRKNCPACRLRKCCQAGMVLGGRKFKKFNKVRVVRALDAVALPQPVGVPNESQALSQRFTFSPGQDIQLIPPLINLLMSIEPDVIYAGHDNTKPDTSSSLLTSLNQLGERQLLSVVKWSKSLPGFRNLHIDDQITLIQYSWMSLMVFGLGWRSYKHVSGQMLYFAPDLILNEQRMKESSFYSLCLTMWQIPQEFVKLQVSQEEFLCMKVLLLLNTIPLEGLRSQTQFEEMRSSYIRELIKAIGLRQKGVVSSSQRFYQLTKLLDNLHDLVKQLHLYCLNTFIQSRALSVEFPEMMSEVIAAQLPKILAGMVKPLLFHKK
T1 sequence (Q96PN7 1-1200 partner): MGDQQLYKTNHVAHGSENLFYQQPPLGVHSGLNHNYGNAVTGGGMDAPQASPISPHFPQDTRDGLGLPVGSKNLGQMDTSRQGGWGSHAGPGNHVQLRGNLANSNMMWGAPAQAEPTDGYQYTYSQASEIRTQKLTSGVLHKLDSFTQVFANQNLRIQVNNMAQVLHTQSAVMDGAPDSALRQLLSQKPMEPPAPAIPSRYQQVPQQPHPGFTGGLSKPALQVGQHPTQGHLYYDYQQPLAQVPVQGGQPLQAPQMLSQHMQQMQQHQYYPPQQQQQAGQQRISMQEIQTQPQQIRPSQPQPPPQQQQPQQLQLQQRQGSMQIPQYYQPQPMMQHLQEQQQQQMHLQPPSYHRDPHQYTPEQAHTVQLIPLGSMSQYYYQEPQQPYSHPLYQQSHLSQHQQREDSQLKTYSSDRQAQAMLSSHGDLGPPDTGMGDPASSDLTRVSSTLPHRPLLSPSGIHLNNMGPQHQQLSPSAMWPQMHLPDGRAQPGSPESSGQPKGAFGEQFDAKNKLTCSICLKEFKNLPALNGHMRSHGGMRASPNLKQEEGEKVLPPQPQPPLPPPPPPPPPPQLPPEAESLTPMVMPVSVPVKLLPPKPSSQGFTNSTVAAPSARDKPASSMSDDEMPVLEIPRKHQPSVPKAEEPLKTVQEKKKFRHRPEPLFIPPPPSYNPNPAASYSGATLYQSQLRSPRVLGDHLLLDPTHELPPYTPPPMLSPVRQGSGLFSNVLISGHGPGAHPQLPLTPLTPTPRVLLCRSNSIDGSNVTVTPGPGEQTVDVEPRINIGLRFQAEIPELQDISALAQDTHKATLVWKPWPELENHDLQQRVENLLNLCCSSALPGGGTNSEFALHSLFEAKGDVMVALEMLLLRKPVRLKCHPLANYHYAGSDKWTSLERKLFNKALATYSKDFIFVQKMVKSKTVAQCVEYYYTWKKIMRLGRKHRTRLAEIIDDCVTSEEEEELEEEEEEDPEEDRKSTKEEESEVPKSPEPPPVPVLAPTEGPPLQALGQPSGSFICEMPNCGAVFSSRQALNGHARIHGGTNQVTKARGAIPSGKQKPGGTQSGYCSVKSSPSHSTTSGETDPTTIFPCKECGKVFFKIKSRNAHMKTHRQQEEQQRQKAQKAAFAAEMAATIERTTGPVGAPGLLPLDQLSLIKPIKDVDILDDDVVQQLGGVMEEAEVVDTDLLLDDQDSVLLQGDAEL


Biological target: T1, PR
Experiment: GST pull-down, TReP-132 and PR
Type: binding
Description: FIG. 14D left: GST-TReP-132 immobilized on glutathione-Sepharose was incubated with ^35-[S]-methionine-labelled PR, in the absence or with increasing concentrations of progesterone (0-10 μM). Specific interactions were analyzed by comparison with the results obtained by incubating GST with ^35-[S]-PR, in the presence of 100 μM progesterone (GST).
FIG. 14D right: GST-TReP-132 wt, GST-TReP-132 ml (mutated at the LRQLL site) and GST-TReP-132 m2 (mutated at the LEMLL site) were analyzed for interaction with ^35-[S]-PR as described earlier, in the presence of 10 μM progesterone. Input PR: 1/10th of the radiolabelled PR level used in the experiments.
In order to evaluate the interaction of TReP-132, Sp1, ER and PR, the wt and mutant GST-TReP-132 fusion proteins were expressed, then immobilized on glutathione-Sepharose as described (Frangioni and Neel, 1993; Monte et al., 1998). The ^35S-[Sp1], ^35S-[ER] and ^35S-[PR-B] proteins were synthesized in vitro using a rabbit reticulocyte lysate and T7 RNA polymerase system as directed by the manufacturer (Promega Corporation, Madison, Wis.). Proteins which bound, then detached from the Sepharose after being heated to boiling in SDS buffer were then separated on a 10% SDS-PAGE gel. The gels were stained with Coomassie blue, dried and autoradiographed.

| Molecule | TReP-132/PR interaction in presence of progesterone (GST-TReP-132 and 35S-PR, progesterone 0-10 μM) | interaction with PR (GST pull-down with 35S-PR) |
| --- | --- | --- |
| CC(=O)[C@H]1CC[C@H]2[C@@H]3CCC4=CC(=O)CC[C@]4(C)[C@H]3CC[C@]12C [progesterone, reference compound] | increased in a dose-dependent manner |  |
| TReP-132: Transcriptional Regulating Protein of 132 kDa, polypeptide comprising SEQ ID NO: 2; here expressed in cells from vectors (protein) MGDQQLYKTNHVAHGSENLFYQQPPLGVHSGLNHNYGNAVTGGGMDAPQASPISPHFPQDTRDGLGLPVGSKNLGQMDTSRQGGWGSHAGPGNHVQLRGNLANSNMMWGAPAQAEPTDGYQYTYSQASEIRTQKLTSGVLHKLDSFTQVFANQNLRIQVNNMAQVLHTQSAVMDGAPDSALRQLLSQKPMEPPAPAIPSRYQQVPQQPHPGFTGGLSKPALQVGQHPTQGHLYYDYQQPLAQVPVQGGQPLQAPQMLSQHMQQMQQHQYYPPQQQQQAGQQRISMQEIQTQPQQIRPSQPQPPPQQQQPQQLQLQQRQGSMQIPQYYQPQPMMQHLQEQQQQQMHLQPPSYHRDPHQYTPEQAHTVQLIPLGSMSQYYYQEPQQPYSHPLYQQSHLSQHQQREDSQLKTYSSDRQAQAMLSSHGDLGPPDTGMGDPASSDLTRVSSTLPHRPLLSPSGIHLNNMGPQHQQLSPSAMWPQMHLPDGRAQPGSPESSGQPKGAFGEQFDAKNKLTCSICLKEFKNLPALNGHMRSHGGMRASPNLKQEEGEKVLPPQPQPPLPPPPPPPPPPQLPPEAESLTPMVMPVSVPVKLLPPKPSSQGFTNSTVAAPSARDKPASSMSDDEMPVLEIPRKHQPSVPKAEEPLKTVQEKKKFRHRPEPLFIPPPPSYNPNPAASYSGATLYQSQLRSPRVLGDHLLLDPTHELPPYTPPPMLSPVRQGSGLFSNVLISGHGPGAHPQLPLTPLTPTPRVLLCRSNSIDGSNVTVTPGPGEQTVDVEPRINIGLRFQAEIPELQDISALAQDTHKATLVWKPWPELENHDLQQRVENLLNLCCSSALPGGGTNSEFALHSLFEAKGDVMVALEMLLLRKPVRLKCHPLANYHYAGSDKWTSLERKLFNKALATYSKDFIFVQKMVKSKTVAQCVEYYYTWKKIMRLGRKHRTRLAEIIDDCVTSEEEEELEEEEEEDPEEDRKSTKEEESEVPKSPEPPPVPVLAPTEGPPLQALGQPSGSFICEMPNCGAVFSSRQALNGHARIHGGTNQVTKARGAIPSGKQKPGGTQSGYCSVKSSPSHSTTSGETDPTTIFPCKECGKVFFKIKSRNAHMKTHRQQEEQQRQKAQKAAFAAEMAATIERTTGPVGAPGLLPLDQLSLIKPIKDVDILDDDVVQQLGGVMEEAEVVDTDLLLDDQDSVLLQGDAEL |  | interact |
